Where no end group is shown, it is not given here.
Target: T1, α2 β1 integrin (Homo sapiens, UniProt P05556+P17301)
T1 construct: Mg^++ -dependent adhesion of platelets, which use the α2 β1 integrin as a collagen specific receptor; endogenous in cells; host or cells: washed 51Cr-labelled platelets
Assay: Mg++-dependent adhesion of 51Cr-labeled platelets to type I collagen substrates, peptide inhibition
Type: cell-based
Protocol: Platelet Adhesion-Platelets were washed and labeled with ^51 CrO4 as described in detail by Haverstick et al (22). Platelet adhesion to substrate composed of 0.5% BSA or 20 μg/ml of either type I collagen, laminin or fibronectin in polystryene dishes was determined as previously described in detail (7). Alternately, adhesion assays were carried out in 96 well microtiter dishes (Immulon II, Dynatech). In this case substrate coating- and adhesion assay volumes were adjusted to 100 μl and wash volumes were adjusted to 140 μl per well. Platelets were permitted to adhere for 60 min at a concentration of 1.3-- to 1.8×10^8 platelets/ml, then wash five times in adhesion assay buffer before being lysed with two […] aliquots of 2% SDS which were subsequently pooled and counted.
Peptide Inhibition--After labeling and washing, cells were resuspended at 2.6- to 3.6×10^5 /ml for platelets or 2×10^5 /ml for T47D cells. Aliquots were added to equal volumes of buffer containing appropriate concentrations of the peptides and divalent cations and preincubated for 15 min before being added to the adhesive substrates. Adhesion was quantitated as described above.

T1 sequence (P17301 30-1181): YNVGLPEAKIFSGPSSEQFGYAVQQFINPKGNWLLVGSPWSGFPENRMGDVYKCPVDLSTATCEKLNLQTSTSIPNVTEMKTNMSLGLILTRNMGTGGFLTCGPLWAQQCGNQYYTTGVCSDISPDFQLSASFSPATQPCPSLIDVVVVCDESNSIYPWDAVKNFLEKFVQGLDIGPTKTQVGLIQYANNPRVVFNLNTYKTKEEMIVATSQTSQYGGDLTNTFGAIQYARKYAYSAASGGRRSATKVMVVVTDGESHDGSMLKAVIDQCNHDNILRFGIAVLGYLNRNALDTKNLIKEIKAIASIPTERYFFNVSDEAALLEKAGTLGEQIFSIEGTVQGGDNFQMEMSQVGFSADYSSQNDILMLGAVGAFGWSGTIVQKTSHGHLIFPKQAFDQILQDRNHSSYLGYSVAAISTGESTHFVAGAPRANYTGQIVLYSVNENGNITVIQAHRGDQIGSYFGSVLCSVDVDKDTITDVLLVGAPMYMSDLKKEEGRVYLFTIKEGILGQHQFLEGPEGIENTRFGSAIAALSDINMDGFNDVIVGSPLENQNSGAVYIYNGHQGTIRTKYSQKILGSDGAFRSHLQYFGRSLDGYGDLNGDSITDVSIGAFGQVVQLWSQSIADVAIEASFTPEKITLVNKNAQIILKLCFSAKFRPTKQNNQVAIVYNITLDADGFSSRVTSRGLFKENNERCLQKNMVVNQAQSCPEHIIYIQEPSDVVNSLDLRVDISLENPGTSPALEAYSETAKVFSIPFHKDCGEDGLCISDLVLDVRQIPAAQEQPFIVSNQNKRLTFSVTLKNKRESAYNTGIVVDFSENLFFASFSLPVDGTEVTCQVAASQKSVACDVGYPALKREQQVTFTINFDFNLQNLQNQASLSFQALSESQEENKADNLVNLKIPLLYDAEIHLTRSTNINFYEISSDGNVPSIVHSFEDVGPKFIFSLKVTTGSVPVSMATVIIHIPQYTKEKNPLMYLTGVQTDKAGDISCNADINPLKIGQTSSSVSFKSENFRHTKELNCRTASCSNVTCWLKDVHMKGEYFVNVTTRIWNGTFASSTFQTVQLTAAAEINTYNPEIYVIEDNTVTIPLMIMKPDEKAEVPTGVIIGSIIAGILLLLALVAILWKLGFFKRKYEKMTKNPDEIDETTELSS
T1 sequence (P05556 21-798): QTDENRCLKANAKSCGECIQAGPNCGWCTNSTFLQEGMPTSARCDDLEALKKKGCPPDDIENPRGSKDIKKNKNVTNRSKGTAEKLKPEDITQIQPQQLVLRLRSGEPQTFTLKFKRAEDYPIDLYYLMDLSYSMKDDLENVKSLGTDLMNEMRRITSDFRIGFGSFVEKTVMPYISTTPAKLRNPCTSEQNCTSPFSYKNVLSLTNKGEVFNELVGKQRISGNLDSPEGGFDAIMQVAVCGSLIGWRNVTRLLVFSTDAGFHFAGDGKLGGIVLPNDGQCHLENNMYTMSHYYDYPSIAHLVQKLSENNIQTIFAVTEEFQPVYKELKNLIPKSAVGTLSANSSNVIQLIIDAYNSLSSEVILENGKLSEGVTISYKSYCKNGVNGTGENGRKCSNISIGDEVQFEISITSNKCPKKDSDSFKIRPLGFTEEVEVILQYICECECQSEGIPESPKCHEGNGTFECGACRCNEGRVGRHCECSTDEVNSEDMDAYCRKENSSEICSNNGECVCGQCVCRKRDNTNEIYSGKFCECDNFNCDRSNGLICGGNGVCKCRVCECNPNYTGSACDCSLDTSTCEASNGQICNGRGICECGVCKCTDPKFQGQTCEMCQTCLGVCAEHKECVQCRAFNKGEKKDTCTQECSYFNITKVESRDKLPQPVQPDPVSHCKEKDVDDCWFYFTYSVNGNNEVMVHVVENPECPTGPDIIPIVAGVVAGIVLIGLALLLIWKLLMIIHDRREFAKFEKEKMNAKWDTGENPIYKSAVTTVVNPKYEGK

IC50 (read-out: Half-maximal inhibition of Mg++-dependent platelet adhesion to collagen)	Inhibitory activity in 1 mM Mg++ as percent of the activity observed in 6 mM Mg++ (1 mM Mg++ versus 6 mM Mg++)	Inhibition of Mg++-dependent platelet adhesion to collagen (4 mM peptide, 2 mM Mg++)	Substance
2.8 mM	–	–	GPAGKDGEAGAQG-NH2 [peptide 430, GPAGKDGEAGAQG]
–	80%	80%	KDGEA-NH2 [KDGEA]
